Literature values as cited in patent US20250235578A1, “WOUND DRESSING COMPOSITIONS AND METHODS OF USE AND PREPARATION THEROF” (T.J.Smith and Nephew,Limited, priority 2021, published 2025).

Conditions: under normal conditions

## [N]=O [NO, nitric oxide]
  maximum solubility in water: approximately 1.7 mM
